#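 Interpolation was linear, between the two tested concentrations surrounding the appropriate level; five concentrations were tested over 48 hours in 96-well plates. Abbreviation: GI50, concentration required for 50% inhibition of growth.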 Calls of active or inactive are those of the source. Rule as the data show it: active = GI50 up to about 1.1 µM and inactive = higher.
# Columns and labels:
# Assay in all cases: NCI-60 cell line screen, 48 h
# [1] = system: SW-620
# [2] = system: UACC-62
# [3] = system: SK-MEL-2
# [4] = system: RPMI-8226
# [5] = system: COLO 205
# [6] = system: IGROV-1
# [7] = system: OVCAR-3
# [8] = system: MCF7
# [9] = system: SK-MEL-28
# [10] = system: HCC 2998
# [11] = system: M14
# [12] = system: HOP-62
# [13] = system: UO-31
# [14] = system: EKVX
# [15] = system: MDA-MB-435
# [16] = system: OVCAR-8
# [17] = system: NCI/ADR-RES
# [18] = system: SN12C
# [19] = system: HCT-15
# [20] = system: SK-MEL-5
# [21] = system: RXF 393
# [22] = system: MOLT-4
# [23] = system: DU-145
# [24] = system: HCT-116
# [25] = system: NCI-H522
# [26] = system: MDA-MB-231
# [27] = system: HT-29
# [28] = system: SF-295
# [29] = system: OVCAR-5
# [30] = system: NCI-H23
# [31] = system: UACC-257
# [32] = system: CAKI-1
# [33] = system: SF-268
# [34] = system: OVCAR-4
# [35] = system: Hs-578T
# [36] = system: Malme-3M
# [37] = system: PC-3
# [38] = system: SK-OV-3
# [39] = system: A498
# [40] = system: 786-0
# [41] = system: NCI-H226
# [42] = system: HL-60
# [43] = system: LOX IMVI
# [44] = system: A549
# [45] = system: MDA-N
# [46] = system: KM12
# [47] = system: TK-10
# [48] = system: BT-549
# [49] = system: U-251
# [50] = system: SNB-75
# [51] = system: T47D
# [52] = system: SF-539
# [53] = system: NCI-H460
# [54] = system: HOP-92
# [55] = system: ACHN
# [56] = system: SNB-19
# [57] = system: SR
# [58] = system: K562
# [59] = system: CCRF-CEM
structure (smiles),measurement,setting,value
CCOc1nnnc2[nH]cnc12,GI50,[1],> 100 µM (inactive)
same,GI50,[2],> 100 µM (inactive)
same,GI50,[3],> 100 µM (inactive)
same,GI50,[4],> 100 µM (inactive)
same,GI50,[5],> 100 µM (inactive)
same,GI50,[6],> 100 µM (inactive)
same,GI50,[7],> 100 µM (inactive)
same,GI50,[8],> 100 µM (inactive)
same,GI50,[9],> 100 µM (inactive)
same,GI50,[10],> 100 µM (inactive)
same,GI50,[11],> 100 µM (inactive)
same,GI50,[12],> 100 µM (inactive)
same,GI50,[13],> 100 µM (inactive)
same,GI50,[14],> 100 µM (inactive)
same,GI50,[15],> 100 µM (inactive)
same,GI50,[16],> 100 µM (inactive)
same,GI50,[17],> 100 µM (inactive)
same,GI50,[18],> 100 µM (inactive)
same,GI50,[19],> 100 µM
same,GI50,[20],> 100 µM (inactive)
same,GI50,[21],> 100 µM (inactive)
same,GI50,[22],> 100 µM (inactive)
same,GI50,[23],> 100 µM (inactive)
same,GI50,[24],> 100 µM (inactive)
same,GI50,[25],> 100 µM (inactive)
same,GI50,[26],> 100 µM (inactive)
same,GI50,[27],> 100 µM (inactive)
same,GI50,[28],> 100 µM (inactive)
same,GI50,[29],> 100 µM (inactive)
same,GI50,[30],> 100 µM (inactive)
same,GI50,[31],> 100 µM (inactive)
same,GI50,[32],> 100 µM (inactive)
same,GI50,[33],> 100 µM (inactive)
same,GI50,[34],> 100 µM (inactive)
same,GI50,[35],> 100 µM (inactive)
same,GI50,[36],> 100 µM (inactive)
same,GI50,[37],> 100 µM (inactive)
same,GI50,[38],> 100 µM (inactive)
same,GI50,[39],> 100 µM (inactive)
same,GI50,[40],> 100 µM (inactive)
same,GI50,[41],> 100 µM (inactive)
same,GI50,[42],> 100 µM (inactive)
same,GI50,[43],> 100 µM (inactive)
same,GI50,[44],> 100 µM (inactive)
same,GI50,[45],> 100 µM (inactive)
same,GI50,[46],> 100 µM (inactive)
same,GI50,[47],> 100 µM (inactive)
same,GI50,[48],> 100 µM (inactive)
same,GI50,[49],> 100 µM (inactive)
same,GI50,[50],> 100 µM (inactive)
same,GI50,[51],> 100 µM (inactive)
same,GI50,[52],> 100 µM (inactive)
same,GI50,[53],> 100 µM (inactive)
C[C@@]12c3c4ccc(C=O)c3Oc3ccc(C=O)c(c31)Oc1c(C=O)ccc(c12)O4,GI50,[1],> 100 µM (inactive)
same,GI50,[54],0.565 µM (active)
same,GI50,[2],> 100 µM (inactive)
same,GI50,[3],> 100 µM (inactive)
same,GI50,[4],> 100 µM (inactive)
same,GI50,[5],> 100 µM (inactive)
same,GI50,[6],> 100 µM (inactive)
same,GI50,[7],> 100 µM (inactive)
same,GI50,[8],> 100 µM (inactive)
same,GI50,[55],> 100 µM (inactive)
same,GI50,[56],> 100 µM (inactive)
same,GI50,[9],> 100 µM (inactive)
same,GI50,[10],> 100 µM (inactive)
same,GI50,[11],> 100 µM (inactive)
same,GI50,[12],> 100 µM (inactive)
same,GI50,[57],2.96 µM (inactive)
same,GI50,[58],> 100 µM (inactive)
same,GI50,[13],> 100 µM (inactive)
same,GI50,[14],> 100 µM (inactive)
same,GI50,[15],> 100 µM (inactive)
same,GI50,[16],> 100 µM (inactive)
same,GI50,[17],> 100 µM (inactive)
same,GI50,[18],> 100 µM (inactive)
same,GI50,[19],> 100 µM
same,GI50,[20],> 100 µM (inactive)
same,GI50,[22],> 100 µM (inactive)
same,GI50,[24],> 100 µM (inactive)
same,GI50,[26],> 100 µM (inactive)
same,GI50,[27],> 100 µM (inactive)
same,GI50,[28],> 100 µM (inactive)
same,GI50,[29],> 100 µM (inactive)
same,GI50,[30],> 100 µM (inactive)
same,GI50,[31],> 100 µM (inactive)
same,GI50,[33],> 100 µM (inactive)
same,GI50,[34],> 100 µM (inactive)
same,GI50,[35],> 100 µM (inactive)
same,GI50,[36],> 100 µM (inactive)
same,GI50,[37],> 100 µM (inactive)
same,GI50,[38],> 100 µM (inactive)
same,GI50,[39],31.5 µM (inactive)
same,GI50,[40],> 100 µM (inactive)
same,GI50,[41],> 100 µM (inactive)
same,GI50,[43],> 100 µM (inactive)
same,GI50,[44],> 100 µM (inactive)
same,GI50,[45],> 100 µM (inactive)
same,GI50,[46],> 100 µM (inactive)
same,GI50,[47],> 100 µM (inactive)
same,GI50,[48],> 100 µM (inactive)
same,GI50,[49],> 100 µM (inactive)
same,GI50,[50],> 100 µM (inactive)
same,GI50,[51],> 100 µM (inactive)
same,GI50,[52],> 100 µM (inactive)
same,GI50,[53],> 100 µM (inactive)
CCOC(=O)c1c(C)n(Cc2ccccc2)c2c1cc(O)c1[nH]c3c(c12)CCCC3,GI50,[1],3.65 µM (inactive)
same,GI50,[54],< 0.01 µM (active)
same,GI50,[2],1.9 µM (inactive)
same,GI50,[3],2.31 µM (inactive)
same,GI50,[4],2.14 µM (inactive)
same,GI50,[5],5.85 µM (inactive)
same,GI50,[6],3.44 µM (inactive)
same,GI50,[7],2.2 µM (inactive)
same,GI50,[8],2.36 µM (inactive)
same,GI50,[55],11.3 µM (inactive)
same,GI50,[59],2.37 µM (inactive)
same,GI50,[56],3.03 µM (inactive)
same,GI50,[9],5.18 µM (inactive)
same,GI50,[11],6.52 µM (inactive)
same,GI50,[12],11.7 µM (inactive)
same,GI50,[58],3.33 µM (inactive)
same,GI50,[13],2.58 µM (inactive)
same,GI50,[14],2.69 µM (inactive)
same,GI50,[15],11.9 µM (inactive)
same,GI50,[16],6.32 µM (inactive)
same,GI50,[17],4.72 µM (inactive)
same,GI50,[18],5.47 µM (inactive)
same,GI50,[19],2.2 µM
same,GI50,[20],3.98 µM (inactive)
same,GI50,[22],2.43 µM (inactive)
same,GI50,[23],12.6 µM (inactive)
same,GI50,[24],6.1 µM (inactive)
same,GI50,[25],1.16 µM (inactive)
same,GI50,[26],5.35 µM (inactive)
same,GI50,[27],13.4 µM (inactive)
same,GI50,[28],3.37 µM (inactive)
same,GI50,[29],7.08 µM (inactive)
same,GI50,[30],10.4 µM (inactive)
same,GI50,[31],17.5 µM (inactive)
same,GI50,[32],10.6 µM (inactive)
same,GI50,[33],1.81 µM (inactive)
same,GI50,[34],1.07 µM (active)
same,GI50,[35],2.25 µM (inactive)
same,GI50,[36],3.79 µM (inactive)
same,GI50,[37],2.43 µM (inactive)
same,GI50,[38],10.3 µM (inactive)
same,GI50,[40],16.1 µM (inactive)
same,GI50,[42],2.41 µM (inactive)
same,GI50,[43],4.85 µM (inactive)
same,GI50,[44],6.52 µM (inactive)
same,GI50,[45],13.6 µM (inactive)
same,GI50,[46],3.17 µM (inactive)
same,GI50,[47],10.6 µM (inactive)
same,GI50,[48],11.7 µM (inactive)
same,GI50,[49],1.81 µM (inactive)
same,GI50,[51],2.03 µM (inactive)
same,GI50,[52],1.95 µM (inactive)
same,GI50,[53],2.82 µM (inactive)
